Measured values published in patent publication US20190365907A1, “ZWITTERIONIC POLYMER-INSULIN COMPOSITIONS AND RELATED METHODS” (Wayne State University, priority 2017, published 2019).

Legend:
[1] = system: streptozotocin (STZ) induced diabetic mice; assay: Blood glucose lowering after tail vein injection in STZ-induced diabetic mice; format: in vivo
Procedure: The mice were fasted during the glucose testing period.
The injection dose for the three samples were readily kept the same at 10 nmol/Kg insulin or its conjugate (for native insulin dose, 10 nmol/kg=1.5 IU/kg), by accurately controlling the feeding molar content of insulin for the conjugation reaction.
The in vivo bioavailability of insulin samples was evaluated by quantifying the area above the curve (AAC) of relative intensity of blood glucose concentration in FIG. 4B.

[2] = Circular dichroism secondary structure of insulin samples; format: physicochemical; details: far-UV CD, 0.2 mg/mL in 0.2 M pH 8.2 PBS buffer, CDSSTR analysis
Procedure: CD spectra were collected by using a Chirascan spectrophotometer from Applied Photophysics at 25° C. Insulin samples were dissolved in 0.2 M PBS buffer at 0.2 mg/ml. The […] CD spectra were measured from 200 to 250 nm with the light-path length of 1 mm. The scanning speed of CD spectra measurement was set at 200 nm/min. Each spectrum was the average of three scans to increase the signal-to-noise ratio of the measurements. The secondary structure proportions for insulin and its conjugates were analyzed using CDSSTR software.
The effect of polymer conjugation on the structure change of insulin was evaluated. Far-ultraviolet CD spectra were collected to quantify the effect of the zwitterionic polymer conjugation on insulin's secondary structure.

insulin receptor = target: T1, insulin receptor (Cricetulus griseus, UniProt A0A8C2MAM4); assay: In vitro bioactivity assay of insulin (phosphorylated AKT at Ser473 in CHO-M 1 cells); format: cell-based; details: 10 μg/mL, 45 minutes, FIG. 4C
T1 construct: host or cells: CHO-M1 cells
Procedure: About 25,000 CHO-M 1 cells/well (ATCC) were seeded in a 96-well tissue culture treated plate and incubate for 24 h before being cultured in serum-free medium. […] Then cells were lysed and a commercially available kit (Cisbio) was used to assay phosphorylated AKT at Ser473. The fluorescence emission at 665 and 620 nm was measured on a HTRF reader (BioTek, USA).
The relative activity was presented as the percentage relative to native insulin±standard deviation (n=6) * p<0.05, ** p<0.01, ns=not significant.

[3] = Hydrodynamic size by dynamic light scattering (DLS); format: physicochemical; details: pH 8.4 0.2M HEPES buffer, 25° C.; average±standard deviation, n=3
Procedure: The hydrodynamic sizes of the insulin and its conjugate samples were collected by a DLS method using a Malvern Nano-ZS Zetasizer at 25° C.
The hydrodynamic size of PCB-conjugated insulin was measured by a dynamic light scattering (DLS) method by using a Malvern Nano-ZS Zetasizer.

[4] = non-purified (rough) products, 10 nmol/Kg intravenous, FIG. 4A
[5] = purified conjugates, 10 nmol/kg intravenous, FIG. 4B

T1 sequence (A0A8C2MAM4 28-1372): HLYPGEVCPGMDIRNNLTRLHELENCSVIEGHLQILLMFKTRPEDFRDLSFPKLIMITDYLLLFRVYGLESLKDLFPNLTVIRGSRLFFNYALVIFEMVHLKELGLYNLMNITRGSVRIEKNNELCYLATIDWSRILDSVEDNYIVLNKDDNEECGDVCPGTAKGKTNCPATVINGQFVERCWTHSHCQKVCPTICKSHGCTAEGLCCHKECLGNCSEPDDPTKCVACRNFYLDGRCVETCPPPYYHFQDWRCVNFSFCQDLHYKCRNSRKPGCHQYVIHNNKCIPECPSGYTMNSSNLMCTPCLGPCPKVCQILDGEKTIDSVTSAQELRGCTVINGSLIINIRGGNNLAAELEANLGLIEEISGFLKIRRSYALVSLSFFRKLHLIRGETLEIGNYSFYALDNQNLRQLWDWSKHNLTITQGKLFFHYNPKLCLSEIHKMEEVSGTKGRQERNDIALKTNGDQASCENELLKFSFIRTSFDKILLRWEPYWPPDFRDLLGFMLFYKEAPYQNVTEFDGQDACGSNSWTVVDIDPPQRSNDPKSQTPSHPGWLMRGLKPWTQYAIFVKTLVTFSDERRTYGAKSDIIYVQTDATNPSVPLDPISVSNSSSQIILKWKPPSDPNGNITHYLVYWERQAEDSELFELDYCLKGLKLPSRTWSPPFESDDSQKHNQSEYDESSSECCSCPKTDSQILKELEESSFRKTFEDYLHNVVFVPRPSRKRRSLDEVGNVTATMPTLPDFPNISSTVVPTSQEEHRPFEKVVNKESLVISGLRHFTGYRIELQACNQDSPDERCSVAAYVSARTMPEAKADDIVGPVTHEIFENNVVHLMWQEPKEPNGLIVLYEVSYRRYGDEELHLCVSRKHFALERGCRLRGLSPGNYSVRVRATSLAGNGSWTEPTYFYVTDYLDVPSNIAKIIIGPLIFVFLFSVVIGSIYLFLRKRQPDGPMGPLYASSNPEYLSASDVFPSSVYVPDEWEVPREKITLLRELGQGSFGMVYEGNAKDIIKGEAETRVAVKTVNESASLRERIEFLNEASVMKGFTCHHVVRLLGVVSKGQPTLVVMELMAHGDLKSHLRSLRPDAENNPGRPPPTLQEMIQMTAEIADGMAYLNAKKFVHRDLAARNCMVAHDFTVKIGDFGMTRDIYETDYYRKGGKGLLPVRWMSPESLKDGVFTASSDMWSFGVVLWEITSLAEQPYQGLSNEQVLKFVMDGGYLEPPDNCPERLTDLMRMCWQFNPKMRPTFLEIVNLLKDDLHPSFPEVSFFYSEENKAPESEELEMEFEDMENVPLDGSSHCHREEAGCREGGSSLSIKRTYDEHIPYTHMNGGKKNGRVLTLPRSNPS

Substance | blood glucose lowering ability compared with native insulin [1, 4] | blood glucose lowering ability compared with native insulin [1, 5] | Random coil (secondary structure proportion) [2] | activity lost in vitro compared with native insulin (insulin receptor) | hydrodynamic size [3]
PCB-insulin: Conjugate of human recombinant insulin with NHS ester terminated zwitterionic carboxybetaine polymer (~5000 Da), one chain per insulin, prioritized at LysB29 | significantly higher blood glucose lowering ability than native insulin | even higher blood glucose lowering ability than native insulin | – | – | –
PEG-insulin: Comparison conjugate of human recombinant insulin with commercially available PEG-NHS (5000 Da) | similar | did not show any better glucose lowering effect than native insulin | 30% | about 27% | 4.2±0.7 nm
